Ends that are not written are not given here. PEG = not defined here
Key:
[1] = tested on: human lung squamous carcinoma cells (NCI-H226); test: scratch assay, migration of NCI-H226 cells; assay type: cell-based; conditions: NCI-H226, 10 μM, 48 hours; control group 65.31 ± 3.19
Summary of the method: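 A straight scratch was made in confluent NCI-H226 monolayers (1-2×10^5 cells/well). Cells were then kept 48 h in 2% FBS medium with 10 μM polypeptide or PBS control, triplicate wells. Migration rate (%) = (original − current scratch width)/original width ×100, from imaged scratch widths.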

[2] = tested on: human colon cancer cells (HCT-116); test: scratch assay, migration of HCT-116 cells; assay type: cell-based; conditions: HCT-116, 10 μM, 48 hours; control group 47.78 ± 6.07
Summary of the method: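 Confluent HCT-116 monolayers were scratched, washed and cultured 48 h in 2% FBS medium with peptide at 10 μM versus PBS control, triplicate wells. Migration rate (%) = (original minus current scratch width)/original width × 100, from at least 3 images per well.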

[3] = tested on: human lung cancer cells (95D); test: scratch assay, migration of 95D cells; assay type: cell-based; conditions: 10 μM, 48 hours, control group 55.3 ± 3.19
Summary of the method: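 Confluent 95D monolayers were scratched, washed with PBS and cultured 48 h in 2% FBS medium containing peptide (10 μM) or PBS control, in triplicate wells. Scratch width was measured on images; migration rate (%) = (original width − current width)/original width × 100.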

[4] = tested on: human breast cancer cells (MDA-MB-231); test: scratch assay, migration of MDA-MB-231 cells; assay type: cell-based; conditions: MDA-MB-231, 10 μM, 48 hours; control group 36.19 ± 5.15
Summary of the method: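 MDA-MB-231 monolayers (1-2×10^5 cells/well) were scratched, then kept 48 h in medium with 2% FBS containing polypeptide at 10 μM, with a PBS control, in triplicate wells. Migration rate (%) was taken from scratch width: (original − current)/original ×100.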

[5] = tested on: human lung cancer cells (A549) subcutaneous xenograft; test: lung cancer subcutaneous xenograft animal model, intravenous injection; assay type: in vivo, mice (BALB/c-nu/nu); conditions: intravenous 60 mg/kg once every other day, 20 days; for Weight of tumor (g) (mean ± SD): control 2.53 ± 0.17; for Volume of tumor (mm^3) (mean ± SD): control 3373.26 ± 581.44
Summary of the method: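 Female BALB/c-nu/nu mice (4-6 weeks) inoculated subcutaneously with ~2×10^6 A549 cells; grouped once tumours exceeded 100 mm^3. Peptides given intravenously at 60 mg/kg for 20 days versus model control. Tumour weight and volume measured at dissection; body weight recorded every other day.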

[6] = tested on: human liver cancer cells (HepG2); test: scratch assay, migration of HepG2 cells; assay type: cell-based; conditions: HepG2, 10 μM, 48 hours; control group 71.01 ± 6.63
Summary of the method: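 HepG2 monolayers scratched, then cultured 48 h in 2% FBS medium with test polypeptides at 10 μM versus PBS control, triplicate wells. Migration rate (%) computed from original versus current scratch width in images.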

[7] = tested on: human non-small cell lung cancer cells (A549); test: scratch assay, migration of A549 cells; assay type: cell-based; conditions: A549, 10 μM, 48 hours; control group 75.31 ± 8.19
Summary of the method: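 Confluent A549 monolayers in 24-well plates were scratched, washed with PBS, then cultured 48 h in 2% FBS medium with peptide at 10 μM or PBS control, triplicate wells. Scratch width measured from images; migration rate (%) = (original − current width)/original width × 100.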

[8] = tested on: human prostate cancer cells (22RV1); test: scratch assay, migration of 22RV1 cells; assay type: cell-based; conditions: 22RV1, 10 μM, 48 hours; control group 25.41 ± 5.01
Summary of the method: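 22RV1 monolayers (seeded 1-2×10^5 cells/well) were scratched, washed, then given 2% FBS medium with 10 μM polypeptide or PBS, triplicate wells, for 48 h. Migration rate (%) = (original − current scratch width)/original width ×100, from ≥3 images per well.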

[9] = tested on: human pharyngeal squamous-cell carcinoma cells (Fadu); test: scratch assay, migration of Fadu cells; assay type: cell-based; conditions: 10 μM, 48 hours, control group 28.76 ± 4.08
Summary of the method: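 Confluent Fadu monolayers scratched, then cultured 48 h with 10 μM polypeptide in medium with 2% FBS; PBS control, triplicate wells. Migration rate (%) = (original − current scratch width)/original width × 100, from ≥3 images per well.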

[10] = tested on: human melanoma cells (A375); test: scratch assay, migration of A375 cells; assay type: cell-based; conditions: A375, 10 μM, 48 hours; control group 44.03 ± 6.21
Summary of the method: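 Monolayers scratched, washed with PBS and cultured 48 hours in 2% FBS medium with polypeptides N1-N54 at 10 μM or PBS control, three wells per group. Migration rate (%) = (original − current scratch width)/original width×100, from imaged scratch widths.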

[11] = tested on: human breast cancer cells (MCF-7); test: scratch assay, migration of MCF-7 cells; assay type: cell-based; conditions: MCF-7, 10 μM, 48 hours; control group 30.97 ± 1.79
Summary of the method: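 MCF-7 monolayers scratched, then cultured 48 hours in 2% FBS medium with test peptide at 10 μM versus PBS control, triplicate wells. Migration rate (%) = (original − current scratch width)/original width × 100, measured from images.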

N20: SEQ ID NO: 1 with addition of one amino acid at the amino terminal and deletion of position 18 (RYRVRFLAKENVTQDAED)
Migration rate (%) (mean ± SD, P) [1]: 19.54 ± 6.51,*** % | Migration rate (%) (mean ± SD, P) [2]: 8.17 ± 1.07,*** % | Migration rate (%) (mean ± SD, P) [3]: 43.15 ± 5.46,* % | Migration rate (%) (mean ± SD, P) [4]: 20.18 ± 3.38,* % | Weight of tumor (g) (mean ± SD) [5]: 0.56 ± 0.18 g | Volume of tumor (mm^3) (mean ± SD) [5]: 1072.16 ± 390.44 mm^3 | Migration rate (%) (mean ± SD, P) [6]: 14.22 ± 6.12,*** % | Migration rate (%) (mean ± SD, P) [7]: 55.77 ± 5.06,* % | Migration rate (%) (mean ± SD, P) [8]: 4.88 ± 1.48,** % | Migration rate (%) (mean ± SD, P) [9]: 15.21 ± 4.90,* % | Migration rate (%) (mean ± SD, P) [10]: 14.61 ± 3.12,*** % | Migration rate (%) (mean ± SD, P) [11]: 13.73 ± 4.97,** %

N35: SEQ ID NO: 1 with A15R, addition of one amino acid and PEG modification at the carboxyl terminal (YRVRFLAKENVTQDREDNC-{PEG}; reading uncertain)
Migration rate (%) (mean ± SD, P) [1]: 42.47 ± 5.12,** % | Migration rate (%) (mean ± SD, P) [2]: 9.08 ± 2.64,*** % | Migration rate (%) (mean ± SD, P) [3]: 22.47 ± 5.12,*** % | Migration rate (%) (mean ± SD, P) [4]: 18.12 ± 5.23,* % | Weight of tumor (g) (mean ± SD) [5]: 0.75 ± 0.24 g | Volume of tumor (mm^3) (mean ± SD) [5]: 1097.54 ± 216.63 mm^3 | Migration rate (%) (mean ± SD, P) [6]: 16.83 ± 7.92,*** % | Migration rate (%) (mean ± SD, P) [7]: 32.27 ± 9.53,** % | Migration rate (%) (mean ± SD, P) [8]: 7.13 ± 2.23,** % | Migration rate (%) (mean ± SD, P) [9]: 8.71 ± 1.79,*** % | Migration rate (%) (mean ± SD, P) [10]: 19.51 ± 2.28,** % | Migration rate (%) (mean ± SD, P) [11]: 17.38 ± 2.55,* %

N22: SEQ ID NO: 1 with substitution A7R, deletion of three amino acids at the amino terminal and of positions 15-18 (RFLRKENVTQD)
Migration rate (%) (mean ± SD, P) [1]: 18.69 ± 5.25,*** % | Migration rate (%) (mean ± SD, P) [2]: 7.78 ± 3.07,*** % | Migration rate (%) (mean ± SD, P) [3]: 38.35 ± 5.04,** % | Migration rate (%) (mean ± SD, P) [4]: 16.94 ± 3.17,* % | Weight of tumor (g) (mean ± SD) [5]: 0.89 ± 0.19 g | Volume of tumor (mm^3) (mean ± SD) [5]: 1288.08 ± 577.81 mm^3 | Migration rate (%) (mean ± SD, P) [6]: 18.61 ± 8.35,*** % | Migration rate (%) (mean ± SD, P) [7]: 33.59 ± 5.62,** % | Migration rate (%) (mean ± SD, P) [8]: 6.10 ± 2.72,** % | Migration rate (%) (mean ± SD, P) [9]: 15.11 ± 4.99,* % | Migration rate (%) (mean ± SD, P) [10]: 5.12 ± 3.69,*** % | Migration rate (%) (mean ± SD, P) [11]: 8.79 ± 3.01,** %

N3: SEQ ID NO: 1 with deletion of position 18 and PEG modification at the amino terminal ({PEG}-YRVRFLAKENVTQDAED; reading uncertain)
Migration rate (%) (mean ± SD, P) [1]: 16.38 ± 6.85,*** % | Migration rate (%) (mean ± SD, P) [2]: 22.06 ± 4.59,** % | Migration rate (%) (mean ± SD, P) [3]: 30.19 ± 5.91,** % | Migration rate (%) (mean ± SD, P) [4]: 21.98 ± 2.74,* % | Weight of tumor (g) (mean ± SD) [5]: 0.56 ± 0.16 g | Volume of tumor (mm^3) (mean ± SD) [5]: 1511.56 ± 433.12 mm^3 | Migration rate (%) (mean ± SD, P) [6]: 17.57 ± 6.98,*** % | Migration rate (%) (mean ± SD, P) [7]: 51.86 ± 2.15,** % | Migration rate (%) (mean ± SD, P) [8]: 6.15 ± 4.65,** % | Migration rate (%) (mean ± SD, P) [9]: 12.97 ± 3.58,** % | Migration rate (%) (mean ± SD, P) [10]: 4.91 ± 1.19,*** % | Migration rate (%) (mean ± SD, P) [11]: 10.39 ± 2.07,** %

N19: SEQ ID NO: 1 with deletion of positions 1-5 and 15-18 and addition of two amino acids at the carboxyl terminal (LAKENVTQDRC)
Migration rate (%) (mean ± SD, P) [1]: 16.80 ± 8.02,*** % | Migration rate (%) (mean ± SD, P) [2]: 9.80 ± 2.62,*** % | Migration rate (%) (mean ± SD, P) [3]: 42.04 ± 5.90,* % | Migration rate (%) (mean ± SD, P) [4]: 15.23 ± 3.54,* % | Weight of tumor (g) (mean ± SD) [5]: 0.81 ± 0.19 g | Volume of tumor (mm^3) (mean ± SD) [5]: 1235.44 ± 432.58 mm^3 | Migration rate (%) (mean ± SD, P) [6]: 12.10 ± 6.15,*** % | Migration rate (%) (mean ± SD, P) [7]: 53.74 ± 5.46,* % | Migration rate (%) (mean ± SD, P) [8]: 5.36 ± 1.6,** % | Migration rate (%) (mean ± SD, P) [9]: 17.23 ± 3.53,* % | Migration rate (%) (mean ± SD, P) [10]: 12.93 ± 3.34,*** % | Migration rate (%) (mean ± SD, P) [11]: 11.84 ± 3.95,** %

N10: SEQ ID NO: 1 with deletion of positions 15-18 and 1-3 and PEG modification at the carboxyl terminal (RFLAKENVTQD-{PEG}; reading uncertain)
Migration rate (%) (mean ± SD, P) [1]: 17.75 ± 5.87,*** % | Migration rate (%) (mean ± SD, P) [2]: 8.70 ± 2.39,*** % | Migration rate (%) (mean ± SD, P) [3]: 34.35 ± 5.74,** % | Migration rate (%) (mean ± SD, P) [4]: 13.6 ± 4.62,** % | Weight of tumor (g) (mean ± SD) [5]: 0.86 ± 0.17 g | Volume of tumor (mm^3) (mean ± SD) [5]: 1211.62 ± 670.09 mm^3 | Migration rate (%) (mean ± SD, P) [6]: 39.45 ± 5.00,** % | Migration rate (%) (mean ± SD, P) [7]: 26.86 ± 8.78,** % | Migration rate (%) (mean ± SD, P) [8]: 13.39 ± 2.3,* % | Migration rate (%) (mean ± SD, P) [9]: 15.93 ± 4.73,* % | Migration rate (%) (mean ± SD, P) [10]: 6.71 ± 2.07,*** % | Migration rate (%) (mean ± SD, P) [11]: 9.55 ± 2.72,** %
